Results as given in patent US7211116B2, “Hair dye composition” (Kao Corporation, priority 2001, dated 2007).

Assay: Measurement of hydrogen peroxide remaining ratio in a virtual hair bleach composition (Cu, ammonia, H2O2; iodometric titration)
Conditions: 20.0 mg compound, aqueous Cu solution, stirred 10 minutes at 30° C.
Experimental: The first requirement is a remaining ratio of hydrogen peroxide. The remaining ratio of hydrogen peroxide is determined by measuring the remaining amount of hydrogen peroxide in a virtual hair bleach composition after a predetermined time. The remaining ratio exceeding a predetermined value allows existence of hydrogen peroxide which can be used for hair bleaching or dyeing and promotes the hair bleaching action. The remaining ratio below a predetermined value, on the other hand, prevents excessive stabilization of hydrogen peroxide, whereby the oxidizing agent acts to emit adequate —O2H (perhydroxy anion).
The hydrogen peroxide remaining ratio in the present invention is measured in the following manner. Measurement of hydrogen peroxide remaining ratio %: In a 50 mL screw tube are charged 20.0 mg of Compound (A) and 5.98 g of deionized water to dissolve the former in the latter. […] The point when a violet color (bluish violet to reddish violet) disappears completely is designated as a terminal point and hydrogen peroxide % is determined in accordance with the below-described equation. The amount of hydrogen peroxide in an aqueous solution obtained by diluting 10.00 of 2% aqueous hydrogen peroxide with 10.00 g of deionized water is also measured and the hydrogen peroxide amount at this time is taken as a hydrogen peroxide remaining ratio of 100%.

SMILES: NCCCN [1,3-Propanediamine]
- Hydrogen peroxide remaining ratio: 19.3%
